Measurements taken from ChEMBL document CHEMBL1136668, “Structure-activity relationships of some opiate glycosides” (Bioorg Med Chem Lett, 2003).

Tests used:
Mu-type opioid receptor [1] = target: T1, Mu-type opioid receptor (Rattus norvegicus, UniProt P33535); assay: mu-1 receptor binding affinity in rat brain by 3H [d-Ala2, d-Leu5] enkephalin displacement.; assay type: tissue-based
Mus musculus [2] = assay: Area under the antinociceptive effect time curve was determined after administration of 8 mg/kg in mice; assay type: functional
Mus musculus [3] = assay: Area under the antinociceptive effect time curve after 4 mg/kg administration in mice.; assay type: functional
Mus musculus [4] = assay: Area under the antinociceptive effect time curve after 2 mg/kg administration in mice.; assay type: functional
Mu-type opioid receptor [5] = target: T1, Mu-type opioid receptor; assay: mu-2 receptor binding affinity in rat brain by 3H [d-Ala2, (N-Me)Phe4, Gly5-ol] enkephalin displacement.; assay type: tissue-based

T1 sequence (P33535 whole entry): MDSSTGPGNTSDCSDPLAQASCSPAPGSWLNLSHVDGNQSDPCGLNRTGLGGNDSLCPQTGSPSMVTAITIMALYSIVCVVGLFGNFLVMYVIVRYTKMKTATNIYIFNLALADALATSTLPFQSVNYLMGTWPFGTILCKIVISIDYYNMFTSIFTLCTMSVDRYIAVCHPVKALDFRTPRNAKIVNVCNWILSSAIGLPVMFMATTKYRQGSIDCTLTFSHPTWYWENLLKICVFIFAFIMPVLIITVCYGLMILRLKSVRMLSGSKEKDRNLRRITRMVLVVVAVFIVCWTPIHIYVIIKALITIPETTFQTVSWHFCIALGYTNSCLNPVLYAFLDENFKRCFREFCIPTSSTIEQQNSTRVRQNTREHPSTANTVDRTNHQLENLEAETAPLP

Question: `CN1CC[C@]23c4c5ccc(O)c4O[C@H]2[C@@H](OC2O[C@@H](C(=O)O)CC(O)C2O)C=C[C@H]3[C@H]1C5` (some centres undefined) was tested. Which Ki (Mu-type opioid receptor [1]) did it give?
Answer: 1.9 nM

Question: What about the Activity (Mus musculus [2]) of the same compound?
Answer: 1046 A% min-1

Question: And the AUEC (Mus musculus [3])?
Answer: 365 A% min-1

Question: What about the AUEC (Mus musculus [4]) of the same compound?
Answer: 18 %·min

Question: And the Ki (Mu-type opioid receptor [5])?
Answer: 57 nM

Question: Which Ki (Mu-type opioid receptor [1]) does the source give for `O=C(O)CN1CC[C@]23c4c5ccc(O)c4O[C@H]2[C@@H](O[C@@H]2O[C@@H](C(=O)O)[C@@H](O)[C@H](O)[C@@H]2O)C=C[C@H]3[C@H]1C5` here?
Answer: 33 nM

Question: What about the AUEC (Mus musculus [2]) of the same compound?
Answer: 322 A% min-1

Question: And the AUEC (Mus musculus [3])?
Answer: 45 A% min-1

Question: And the AUEC (Mus musculus [4])?
Answer: 266 %·min

Question: What about the Ki (Mu-type opioid receptor [5]) of the same compound?
Answer: 1620 nM

Question: What does the source list for `CN1CCC23c4c5ccc(O)c4O[C@H]2[C@@H](OC2OC(CO)[C@H](O)C(O)C2O)C=C[C@H]3[C@H]1C5` (some centres undefined)?
Answer: Ki (Mu-type opioid receptor [1]): 1.2 nM; AUEC (Mus musculus [2]): 2397 A% min-1; AUEC (Mus musculus [3]): 686 A% min-1; AUEC (Mus musculus [4]): 682 %·min; Ki (Mu-type opioid receptor [5]): 4.8 nM

Question: Which Ki (Mu-type opioid receptor [1]) does the source give for `CN1CCC23c4c5ccc(O)c4O[C@H]2[C@@H](OC2C=CC(O)C(C(=O)O)O2)C=C[C@H]3[C@H]1C5` (some centres undefined) here?
Answer: 3.2 nM

Question: And the Activity (Mus musculus [2])?
Answer: 851 A% min-1

Question: And the AUEC (Mus musculus [3])?
Answer: 130 A% min-1

Question: And the AUEC (Mus musculus [4])?
Answer: 491 %·min

Question: What about the Ki (Mu-type opioid receptor [5]) of the same compound?
Answer: 178 nM

Question: Which AUEC (Mus musculus [3]) does the source give for `CN1CC[C@]23c4c5ccc(O)c4O[C@H]2[C@@H](O)C=C[C@H]3[C@H]1C5` [MORPHINE] here?
Answer: 1987 A% min-1

Question: What does the source list for `CN1CCC23c4c5ccc(O)c4O[C@H]2[C@@H](OC2OC(C(=O)O)=CC(O)C2O)C=C[C@H]3[C@H]1C5` (some centres undefined)?
Answer: Ki (Mu-type opioid receptor [1]): 1.4 nM; AUEC (Mus musculus [2]): 701 A% min-1; AUEC (Mus musculus [3]): 759 A% min-1; AUEC (Mus musculus [4]): 651 %·min; Ki (Mu-type opioid receptor [5]): 48 nM

Question: Which Ki (Mu-type opioid receptor [1]) does the source give for `CN1CC[C@]23c4c5ccc(O)c4O[C@H]2[C@@H](O[C@@H]2O[C@H](C(=O)O)C[C@H](O)[C@@H]2O)C=C[C@H]3[C@H]1C5` here?
Answer: 0.6 nM

Question: What about the AUEC (Mus musculus [2]) of the same compound?
Answer: 380 A% min-1

Question: What about the AUEC (Mus musculus [3]) of the same compound?
Answer: 80 A% min-1

Question: And the AUEC (Mus musculus [4])?
Answer: 35 %·min

Question: And the Ki (Mu-type opioid receptor [5])?
Answer: 172 nM

Question: What does the source list for `CN1CCC23c4c5ccc(O)c4O[C@H]2[C@@H](O[C@@H]2O[C@H](C(=O)O)[C@@H](O)[C@H]2O)C=C[C@H]3[C@H]1C5`?
Answer: Ki (Mu-type opioid receptor [1]): 1.6 nM; AUEC (Mus musculus [2]): 596 A% min-1; AUEC (Mus musculus [3]): 797 A% min-1; AUEC (Mus musculus [4]): -56 %·min; Ki (Mu-type opioid receptor [5]): 44 nM

Question: With `CN1CCC23c4c5ccc(O)c4O[C@H]2[C@@H](O[C@@H]2O[C@@H](CO)[C@@H](O)[C@H](O)[C@@H]2O)CC[C@H]3[C@H]1C5` as the compound, how does the Ki (Mu-type opioid receptor [1]) read?
Answer: 0.21 nM

Question: What about the AUEC (Mus musculus [3]) of the same compound?
Answer: 2701 A% min-1

Question: What about the AUEC (Mus musculus [4]) of the same compound?
Answer: 1490 %·min

Question: And the Ki (Mu-type opioid receptor [5])?
Answer: 2.5 nM

Question: `O=C(O)[C@@H]1O[C@@H](O[C@H]2C=C[C@H]3[C@H]4Cc5ccc(O)c6c5[C@@]3(CCN4)[C@H]2O6)[C@@H](O)[C@@H](O)[C@@H]1O` was tested. Which Ki (Mu-type opioid receptor [1]) did it give?
Answer: 0.98 nM

Question: What about the AUEC (Mus musculus [2]) of the same compound?
Answer: 2487 A% min-1

Question: What about the AUEC (Mus musculus [3]) of the same compound?
Answer: 1614 A% min-1

Question: And the AUEC (Mus musculus [4])?
Answer: 393 %·min

Question: And the Ki (Mu-type opioid receptor [5])?
Answer: 37 nM

Question: What does the source list for `CN1CC[C@]23c4c5ccc(O)c4O[C@H]2[C@@H](O[C@@H]2O[C@H](C(=O)O)[C@@H](O)[C@H](O)[C@H]2O)C=C[C@H]3[C@H]1C5` [MORPHINE GLUCURONIDE]?
Answer: Ki (Mu-type opioid receptor [1]): 1.5 nM; AUEC (Mus musculus [3]): 1359 A% min-1; Ki (Mu-type opioid receptor [5]): 26 nM

Question: Which Ki (Mu-type opioid receptor [1]) does the source give for `CN1CCC23c4c5ccc(O)c4O[C@H]2[C@@H](OC2CCCC(C(=O)O)O2)C=C[C@H]3[C@H]1C5` (some centres undefined) here?
Answer: 0.51 nM

Question: What about the AUEC (Mus musculus [2]) of the same compound?
Answer: 478 A% min-1

Question: What about the AUEC (Mus musculus [3]) of the same compound?
Answer: 26 A% min-1

Question: And the AUEC (Mus musculus [4])?
Answer: 230 %·min

Question: What about the Ki (Mu-type opioid receptor [5]) of the same compound?
Answer: 168 nM

Question: `CN1CC[C@]23c4c5ccc(O)c4O[C@H]2[C@@H](OC2OC(CO)[C@H](O)C(O)C2O)C=C[C@H]3[C@H]1C5` (some centres undefined) was tested. Which Ki (Mu-type opioid receptor [1]) did it give?
Answer: 0.28 nM

Question: And the AUEC (Mus musculus [3])?
Answer: 2283 A% min-1

Question: What about the AUEC (Mus musculus [4]) of the same compound?
Answer: 1130 %·min

Question: And the Ki (Mu-type opioid receptor [5])?
Answer: 3.2 nM

Question: For `COc1ccc2c3c1O[C@H]1[C@@H](O[C@@H]4O[C@@H](C(=O)O)[C@@H](O)[C@H](O)[C@@H]4O)C=C[C@H]4[C@@H](C2)N(C)CC[C@@]341`, which Ki (Mu-type opioid receptor [1]) is on record?
Answer: 85 nM

Question: What about the Ki (Mu-type opioid receptor [5]) of the same compound?
Answer: 5700 nM

Question: What does the source list for `O=C(O)[C@@H]1O[C@@H](O[C@H]2C=C[C@H]3[C@H]4Cc5ccc(O)c6c5C3(CCN4CC3CC3)[C@H]2O6)[C@@H](O)[C@@H](O)[C@@H]1O`?
Answer: Ki (Mu-type opioid receptor [1]): 0.06 nM; AUEC (Mus musculus [2]): 266 A% min-1; AUEC (Mus musculus [3]): 599 A% min-1; AUEC (Mus musculus [4]): 126 %·min; Ki (Mu-type opioid receptor [5]): 3.5 nM

Question: With `C=CCN1CC[C@]23c4c5ccc(O)c4O[C@H]2[C@@H](O[C@@H]2O[C@@H](C(=O)O)[C@@H](O)[C@H](O)[C@@H]2O)C=C[C@H]3[C@H]1C5` as the compound, how does the Ki (Mu-type opioid receptor [1]) read?
Answer: 0.2 nM

Question: And the AUEC (Mus musculus [2])?
Answer: 492 A% min-1

Question: What about the AUEC (Mus musculus [3]) of the same compound?
Answer: 147 A% min-1

Question: And the AUEC (Mus musculus [4])?
Answer: 221 %·min

Question: And the Ki (Mu-type opioid receptor [5])?
Answer: 10 nM

Question: With `CC1OC(O[C@H]2C=C[C@H]3[C@H]4Cc5ccc(O)c6c5C3(CCN4C)[C@H]2O6)C(O)C(O)C1O` (some centres undefined) as the compound, how does the Ki (Mu-type opioid receptor [1]) read?
Answer: 0.17 nM

Question: And the AUEC (Mus musculus [3])?
Answer: 250 A% min-1

Question: And the AUEC (Mus musculus [4])?
Answer: 421 %·min

Question: What about the Ki (Mu-type opioid receptor [5]) of the same compound?
Answer: 6.2 nM

Question: How did the AUEC (Mus musculus [3]) turn out when `O=C(O)[C@@H]1O[C@@H](O[C@H]2CC[C@H]3[C@H]4Cc5ccc(O)c6c5[C@@]3(CCN4)[C@H]2O6)[C@@H](O)[C@@H](O)[C@@H]1O` was run?
Answer: 2461 A% min-1

Question: What about the AUEC (Mus musculus [4]) of the same compound?
Answer: 2196 %·min

Question: `CN1CCC23c4c5ccc(O)c4O[C@H]2[C@@H](O[C@@H]2O[C@@H](C(=O)O)[C@@H](O)[C@H](O)[C@@H]2O)CC[C@H]3[C@H]1C5` was tested. Which Ki (Mu-type opioid receptor [1]) did it give?
Answer: 0.25 nM

Question: What about the AUEC (Mus musculus [3]) of the same compound?
Answer: 1885 A% min-1

Question: And the AUEC (Mus musculus [4])?
Answer: 1667 %·min

Question: And the Ki (Mu-type opioid receptor [5])?
Answer: 5.7 nM
